Source: patent publication US6153589A, “2,3-epoxy alcohols, acids and derivatives as anti retroviral chemotherapeutic agents” (The United States of America as represented by the …, priority 1992, dated 2000)
Where two headings read alike, the source gives them in different places.

System: HIV1 IIIb
Test: microbe, parasite or virus in culture
Format: cell-based
Settings: Human immunodeficiency virus 1, IIIB; for viability at 10 µg/mL: 10 ug/ml; for viability at 1 µg/mL: 1 ug/ml; for viability at 4.7 µg/mL: 4.7 ug/ml, virus kill 22.0%; for viability at 100 µg/mL: 100 ug/ml; for viability at 34.6 µg/mL: 34.6 ug/ml; for viability at 29 µg/mL: 29 ug/ml; for viability at 24.8 µg/mL: 24.8 ug/ml; for viability at 0.1 µg/mL: 0.1 ug/ml; for viability at 4.07 µg/mL: 4.07 ug/ml
Source text: In-vitro Screening Anti--HIV XTT Assay
This assay, which is available to the public by the National Cancer Institute, utilizes colorimetry based on the production of a colored formazin from a tetrazolium salt by viable cells, to develop a safe, rapid and quantitative measure of HIV cytopathology. The assay is a modification of the previously described screening method for the detection of anti-tumor drug cytotoxicity (D. A. Scudiero, et al, Cancer Res, 48, 4827-4833 (1988)). It involves the plating of susceptible human "host" cells with and without virus in microculture plates, adding various concentrations of the respective test compounds, incubating the plates for seven days, during which time infected, non-drug treated control cells are largely or totally destroyed by the virus. The number of remaining viable cells are determined utilizing a calorimetric endpoint. A beneficial antiviral effect is indicated by a response % grater than the virus kill %, with 100% being optimal.
Anti-viral effect: Response (Viable Cells, determined by colorometric
absorbance of formazan dye produced) as % of uninfected controls
Virus Source: HIV1 IIIb; C, Virus producing H9 cells; V, cell free virus
Virus Kill: Infected untreated cells as % of uninfected cell controls
*: Culture redosed with compound after 3 days

[1] = H9, 168 h, read-out: Antiviral Effect (viable cells as % of uninfected controls), run 1, source C (virus producing H9 cells), virus kill 21.0%

## COC(=O)[C@@H]1O[C@@H]1COCc1ccccc1 [Example 25, Methyl (2R-cis)-3-(benzyloxymethyl)oxirane Carboxylate]
168 h, read-out: Antiviral Effect (viable cells as % of uninfected controls), run 4, source V (cell free virus), virus kill 55.0%
  viability at 10 µg/mL: 46.5%
168 h, read-out: Antiviral Effect (viable cells as % of uninfected controls), run 5, source V (cell free virus), virus kill 27.0%
  viability at 1 µg/mL: 49%
168 h, read-out: Antiviral Effect (viable cells as % of uninfected controls), run 6, source V (cell free virus)
  viability at 4.7 µg/mL: 25.6%
168 h, read-out: Antiviral Effect (viable cells as % of uninfected controls), run 7*, source V (cell free virus), culture redosed with compound after 3 days
  viability at 4.7 µg/mL: 28.5%
H9, 168 h, read-out: Antiviral Effect (viable cells as % of uninfected controls), run 1, source C (virus producing H9 cells), virus kill 20.0%
  viability at 100 µg/mL: 28.6%
H9, 168 h, read-out: Antiviral Effect (viable cells as % of uninfected controls), run 2, source C (virus producing H9 cells), virus kill 13.0%
  viability at 100 µg/mL: 19.5%
H9, 168 h, read-out: Antiviral Effect (viable cells as % of uninfected controls), run 3, source C (virus producing H9 cells), virus kill 11.0%
  viability at 10 µg/mL: 12.3%

## CCCCCCCCC[C@@H]1O[C@@H]1C(=O)O [Example 22, (2-S-cis)-3-Nonyloxiranecarboxylic Acid]
168 h, read-out: Antiviral Effect (viable cells as % of uninfected controls), run 8, source V (cell free virus), virus kill 54.0%
  viability at 34.6 µg/mL: 85.5%
168 h, read-out: Antiviral Effect (viable cells as % of uninfected controls), run 9, source V (cell free virus), virus kill 55.0%
  viability at 29 µg/mL: 68.5%
168 h, read-out: Antiviral Effect (viable cells as % of uninfected controls), run 10, source V (cell free virus), virus kill 26.0%
  viability at 34.6 µg/mL: 40.3%
168 h, read-out: Antiviral Effect (viable cells as % of uninfected controls), run 11, source V (cell free virus), virus kill 33.0%
  viability at 29 µg/mL: 41.9%
168 h, read-out: Antiviral Effect (viable cells as % of uninfected controls), run 12, source V (cell free virus), virus kill 30.0%
  viability at 24.8 µg/mL: 23.1%
168 h, read-out: Antiviral Effect (viable cells as % of uninfected controls), run 13*, source V (cell free virus), virus kill 20.0%, culture redosed with compound after 3 days
  viability at 24.8 µg/mL: 26.6%
[1]
  viability at 10 µg/mL: 50.1%
H9, 168 h, read-out: Antiviral Effect (viable cells as % of uninfected controls), run 2, source C (virus producing H9 cells), virus kill 20.0%
  viability at 0.1 µg/mL: 25.6%
H9, 168 h, read-out: Antiviral Effect (viable cells as % of uninfected controls), run 3, source C (virus producing H9 cells), virus kill 8.0%
  viability at 0.1 µg/mL: 9.5%
H9, 168 h, read-out: Antiviral Effect (viable cells as % of uninfected controls), run 4, source C (virus producing H9 cells), virus kill 16.0%
  viability at 34.6 µg/mL: 25.9%
H9, 168 h, read-out: Antiviral Effect (viable cells as % of uninfected controls), run 5, source C (virus producing H9 cells), virus kill 13.0%
  viability at 29 µg/mL: 18.5%
H9, 168 h, read-out: Antiviral Effect (viable cells as % of uninfected controls), run 6, source C (virus producing H9 cells), virus kill 14.0%
  viability at 34.6 µg/mL: 12.8%
H9, 168 h, read-out: Antiviral Effect (viable cells as % of uninfected controls), run 7, 2.9 ug/ml, source C (virus producing H9 cells), virus kill 16.0%
  viability at 2.9 µg/mL: 11.5%

## CCCCCCCCCCC[C@H]1O[C@@H]1C(=O)O (relative stereo) [Example 20, (2S*-trans)-3-Undecyloxiranecarboxylic Acid]
168 h, read-out: Antiviral Effect (viable cells as % of uninfected controls), run 6, source V (cell free virus), virus kill 55.0%
  viability at 100 µg/mL: 75.7%
168 h, read-out: Antiviral Effect (viable cells as % of uninfected controls), run 7, source V (cell free virus), virus kill 55.0%
  viability at 100 µg/mL: 84.3%
168 h, read-out: Antiviral Effect (viable cells as % of uninfected controls), run 8, source V (cell free virus), virus kill 24.0%
  viability at 100 µg/mL: 40.2%
168 h, read-out: Antiviral Effect (viable cells as % of uninfected controls), run 9, source V (cell free virus), virus kill 24.0%
  viability at 100 µg/mL: 72.5%
168 h, read-out: Antiviral Effect (viable cells as % of uninfected controls), run 10, source V (cell free virus), virus kill 25.0%
  viability at 4.07 µg/mL: 45.5%
168 h, read-out: Antiviral Effect (viable cells as % of uninfected controls), run 11*, source V (cell free virus), virus kill 23.0%, culture redosed with compound after 3 days
  viability at 4.07 µg/mL: 87.4%
H9, 168 h, read-out: Antiviral Effect (viable cells as % of uninfected controls), run 1, source C (virus producing H9 cells), virus kill 18.0%
  viability at 10 µg/mL: 22.6%
H9, 168 h, read-out: Antiviral Effect (viable cells as % of uninfected controls), run 2, source C (virus producing H9 cells), virus kill 14.0%
  viability at 10 µg/mL: 59.5%
H9, 168 h, read-out: Antiviral Effect (viable cells as % of uninfected controls), run 3, source C (virus producing H9 cells), virus kill 14.0%
  viability at 100 µg/mL: 60.9%
H9, 168 h, read-out: Antiviral Effect (viable cells as % of uninfected controls), run 4, source C (virus producing H9 cells), virus kill 10.0%
  viability at 100 µg/mL: 10%
H9, 168 h, read-out: Antiviral Effect (viable cells as % of uninfected controls), run 5, source C (virus producing H9 cells), virus kill 10.0%
  viability at 100 µg/mL: 10.2%

## COC(=O)[C@H]1O[C@H]1COCc1ccccc1 [Example 26, Methyl(2S-cis)-3-(benzyloxymethyl)oxirane carboxylate]
168 h, read-out: Antiviral Effect (viable cells as % of uninfected controls), run 6, source V (cell free virus), virus kill 54.0%
  viability at 10 µg/mL: 58.7%
168 h, read-out: Antiviral Effect (viable cells as % of uninfected controls), run 7, source V (cell free virus), virus kill 54.0%
  viability at 100 µg/mL: 81.3%
168 h, read-out: Antiviral Effect (viable cells as % of uninfected controls), run 8, source V (cell free virus), virus kill 23.0%
  viability at 1 µg/mL: 19.8%
168 h, read-out: Antiviral Effect (viable cells as % of uninfected controls), run 9, source V (cell free virus), virus kill 23.0%
  viability at 100 µg/mL: 23.7%
168 h, read-out: Antiviral Effect (viable cells as % of uninfected controls), run 10, 487 ug/ml, source V (cell free virus), virus kill 30.0%
  viability at 487 µg/mL: 28.1%
168 h, read-out: Antiviral Effect (viable cells as % of uninfected controls), run 11*, 0.487 ug/ml, source V (cell free virus), virus kill 25.0%, culture redosed with compound after 3 days
  viability at 0.487 µg/mL: 26.6%
H9, 168 h, read-out: Antiviral Effect (viable cells as % of uninfected controls), run 1, source C (virus producing H9 cells), virus kill 17.0%
  viability at 10 µg/mL: 20.8%
H9, 168 h, read-out: Antiviral Effect (viable cells as % of uninfected controls), run 2, source C (virus producing H9 cells), virus kill 13.2%
  viability at 10 µg/mL: 39.4%
H9, 168 h, read-out: Antiviral Effect (viable cells as % of uninfected controls), run 3, source C (virus producing H9 cells), virus kill 13.2%
  viability at 100 µg/mL: 54%
H9, 168 h, read-out: Antiviral Effect (viable cells as % of uninfected controls), run 4, source C (virus producing H9 cells), virus kill 12.0%
  viability at 10 µg/mL: 13.8%
H9, 168 h, read-out: Antiviral Effect (viable cells as % of uninfected controls), run 5, source C (virus producing H9 cells), virus kill 12.0%
  viability at 100 µg/mL: 16.3%

## CCCCCCCCCCC[C@@H]1O[C@@H]1C(=O)O (relative stereo) [Example 19, (2S*-cis)-3-Undecyloxiranecarboxylic Acid]
168 h, read-out: Antiviral Effect (viable cells as % of uninfected controls), run 4, source V (cell free virus), virus kill 57.0%
  viability at 10 µg/mL: 63.9%
168 h, read-out: Antiviral Effect (viable cells as % of uninfected controls), run 5, source V (cell free virus), virus kill 26.0%
  viability at 10 µg/mL: 38.8%
168 h, read-out: Antiviral Effect (viable cells as % of uninfected controls), run 6, source V (cell free virus), virus kill 19.0%
  viability at 0.1 µg/mL: 27.6%
168 h, read-out: Antiviral Effect (viable cells as % of uninfected controls), run 7*, source V (cell free virus), virus kill 25.0%, culture redosed with compound after 3 days
  viability at 1 µg/mL: 12.5%
[1]
  viability at 1 µg/mL: 22.6%
H9, 168 h, read-out: Antiviral Effect (viable cells as % of uninfected controls), run 2, source C (virus producing H9 cells), virus kill 15.0%
  viability at 10 µg/mL: 55.7%
H9, 168 h, read-out: Antiviral Effect (viable cells as % of uninfected controls), run 3, source C (virus producing H9 cells), virus kill 13.0%
  viability at 1 µg/mL: 11.6%
